{
  "source": "patent US11377441B2",
  "about": "“Covalent inhibitors of KRAS” (Araxes Pharma LLC, priority 2017, dated 2022)",
  "data": [
    {"biological_target": "T1, KRAS G12C 1-169, his-tagged protein, GDP-loaded (Homo sapiens, UniProt P01116, G12C)", "T1 construct": "KRAS G12C 1-169, his-tagged protein, GDP-loaded", "test": "Biochemical assay: covalent modification of KRAS G12C measured by mass spectrometry (RapidFire/TOF or Q-Exactive)", "assay_type": "binding", "conditions": "covalent binding to (modification of) KRAS G12C after a ten minute incubation period", "experimental": "Test compounds were prepared as 10 mM stock solutions in DMSO (Fisher cat #BP-231-100). KRAS G12C 1-169, his-tagged protein, GDP-loaded is diluted to 2 μM or 0.5 μM in buffer (20 mM Hepes, 150 mM NaCl, 1 mM MgCl2). Compounds were tested for activity as follows:\nCompounds were diluted to 50× final test concentration in DMSO in 96-well storage plates. Compound stock solutions were vortexed before use and observed carefully for any sign of precipitation. Dilutions are as follow: • For 100 μM final compound concentration, compounds were diluted to 5000 μM (5 μL 10 mM compound stock+5 μL DMSO and mixed well by pipetting. • For 30 μM final compound concentration, compounds were diluted to 1500 μM (3 μL 10 mM compound stock+17 μL DMSO) and mixed well by pipetting. • For 10 μM final compound concentration, compounds were diluted to 500 μM (2 μL 10 mM compound stock+38 μL DMSO) and mixed well by pipetting. 49 μL of the stock protein solution was added to each well of a 96-well PCR plate (Fisher cat #1423027). 1 μL of the diluted 50× compounds were added to appropriate wells in the PCR plate using 12-channel pipettor. Reactions were mixed carefully and thoroughly by pipetting up/down with a 200 μL multi-channel pipettor. The plate was sealed well with aluminum plate seal, and stored in drawer at room temperature for 10 minutes, 30 minutes, 2 hours or 24 hours. 5 μL of 2% formic acid (Fisher cat #A117) in de-ionized H2O was then added to each well followed by mixing with a pipette. The plate was then resealed with aluminum seal and stored on dry ice until analyzed as described below.\nThe above described assays were analyzed by mass spectrometry according to one of the following two procedures:\nThe MS instrument was set to positive polarity, 2 GHz resolution, and low mass (1700) mode and allowed to equilibrate for 30 minutes. The instrument was then calibrated, switched to acquisition mode and the appropriate method loaded.\nAfter another 30 minute equilibration time, a blank batch (i.e., buffer) was run to ensure equipment is operating properly. The samples were thawed at 37° C. for 10 minutes, briefly centrifuged, and transfer to the bench top. Wells A1 and H12 were spiked with 1 μL 500 μM internal standard peptide, and the plates centrifuged at 2000×g for 5 minutes. The method was then run and masses of each individual well recorded.\nThe masses (for which integration data is desired) for each well were pasted into the platemap and exported from the analysis. Masses for the internal standards were exported as well. The data at 50 ppm was extracted for the +19 charge state, and identity of well A1 was assigned using the internal standard spike and integrated. Peak data was exported as a TOF list and the above steps were repeated individually, for the +20, 21, 22, 23, 24, and 25 charge states.\nThe masses and peak intensities of KRAS G12C protein species were measured using a Dionex RSLCnano system (Thermo Scientific) connected to a Q Exactive Plus mass spectrometer (Thermo Scientific).\n[…] of sample was each loaded onto a Aeris™ 3.6 μm WIDEPORE C4 200 Å, LC Column 50×2.1 mm column maintained at 40° C. at a flow rate of 600 μL/min with 20% Solvent A (0.1% formic acid in H2O) and […] (0.1% formic acid in acetonitrile). The liquid chromatography conditions were 20% solvent B for 1 minute, 20% to 60% solvent B for 1.5 minutes, 60% to 90% solvent for 0.5 minute, 90% solvent B for 0.2 minute, 90% to 20% solvent B for 0.2 minute, and then equilibrated for 1.6 minutes before the following sample injection. The flow rate was maintained at 600 μL/min throughout the sample analysis.\nThe mass spectrometer was operated in profile mode at a resolution of 17500, 5 microscans, using 50 msec max injection time and an AGC target of 1×10^6, and a full mass range from 800-1850 m/z was recorded. The HCD trapping gas was optimized for maximum sensitivity for intact proteins. […]", "values": [
      {"smiles": "C=CC(=O)N1C[C@H](C)N(c2nc(OCCN3CCOCC3)nc3c(F)c(-c4c(C)ccc5[nH]nc(C6CC6)c45)c(Cl)cc23)C[C@H]1C", "note": "(atropisomer, axis not shown) [Compound 113, 1-((2R,5S)-4-((R)-6-chloro-7-(3-cyclopropyl-5-methyl-1H-indazol-4-yl)-8-fluoro-2-(2-morpholinoethoxy)quina-zolin-4-yl)-2,5-dimethylpiperazin-1-yl)prop-2-en-1-one]", "Binding %": "++ (++ indicates binding activity from 50 to 80%)"},
      {"smiles": "C=CC(=O)N1C[C@H](C)N(c2nc(OCCN3CCC(F)(F)C3)nc3c(F)c(-c4c(C)ccc5[nH]nc(C6CC6)c45)c(Cl)cc23)C[C@H]1C", "note": "(atropisomer, axis not shown) [Compound 116, 1-((2R,5S)-4-((S)-6-chloro-7-(3-cyclopropyl-5-methyl-1H-indazol-4-yl)-2-(2-(3,3-difluoropyrrolidin-1-y)ethoxy)-8-fluoroquinazolin-4-yl)-2,5-dimethylpiperazin-1-yl)prop-2-en-1-one]", "Binding %": "+ (+ indicates binding activity greater than 0% and up to 50%)"},
      {"smiles": "C=CC(=O)N1C[C@H](C)N(c2nc(OCCN3CCC(F)(F)C3)nc3c(F)c(-c4c(C)ccc5[nH]nc(C6CC6)c45)c(Cl)cc23)C[C@H]1C", "note": "(atropisomer, axis not shown) [Compound 117, 1-((2R,5S)-4-((R)-6-chloro-7-(3-cyclopropyl-5-methyl-1H-indazol-4-yl)-2-(2-(3,3-difluoropyrrolidin-1-yl)ethoxy)-8-fluoroquinazolin-4-yl)-2,5-dimethylpiperazin-1-yl)prop-2-en-1-one]", "Binding %": "+++ (+++ indicates binding activity greater than 80%)"},
      {"smiles": "C=CC(=O)N1C[C@H](C)N(c2nc(OCCN3CC(F)(F)C3)nc3c(F)c(-c4c(C)ccc5[nH]nc(C6CC6)c45)c(Cl)cc23)C[C@H]1C", "note": "(atropisomer, axis not shown) [Compound 121, 1-((2R,5S)-4-((S)-6-chloro-7-(3-cyclopropyl-5-methyl-1H-indazol-4-yl)-2-(2-(3,3-difluoroazetidin-1-yl)ethoxy)-8-fluoroquinazolin-4-yl)-2,5-dimethylpiperazin-1-yl)prop-2-en-1-one]", "Binding %": "+ (+ indicates binding activity greater than 0% and up to 50%)"},
      {"smiles": "C=CC(=O)N1C[C@H](C)N(c2nc(OCCN3CC(F)(F)C3)nc3c(F)c(-c4c(C)ccc5[nH]nc(C6CC6)c45)c(Cl)cc23)C[C@H]1C", "note": "(atropisomer, axis not shown) [Compound 122, 1-((2R,5S)-4-((R)-6-chloro-7-(3-cyclopropyl-5-methyl-1H-indazol-4-yl)-2-(2-(3,3-difluoroazetidin-1-yl)ethoxy)-8-fluoroquinazolin-4-yl)-2,5-dimethylpiperazin-1-yl)prop-2-en-1-one]", "Binding %": "+++ (+++ indicates binding activity greater than 80%)"},
      {"smiles": "C=CC(=O)N1C[C@H](C)N(c2nc(N3CC(N(C)C)C3)nc3c(F)c(-c4c(C)ccc5cnn(C)c45)c(Cl)cc23)C[C@H]1C", "note": "(atropisomer, axis not shown) [Compound 131, 1-((2R,5S)-4-((S)-6-chloro-7-(1,6-dimethyl-1H-indazol-7-yl)-2-(3-(dimethylamino)azetidin-1-yl)-8-fluoroquinazolin-4-yl)-2,5-dimethylpiperazin-1-yl)prop-2-en-1-one]", "Binding %": "+ (+ indicates binding activity greater than 0% and up to 50%)"},
      {"smiles": "C=CC(=O)N1[C@H](C)CN(c2nc(N3CC(N(C)C)C3)nc3c(F)c(-c4c(C)ccc5[nH]nc(C6CC6)c45)c(Cl)cc23)C[C@@H]1C", "note": "(atropisomer, axis not shown) [Compound 133, 1-((2S,6R)-4-((S)-6-chloro-7-(3-cyclopropyl-5-methyl-1H-indazol-4-yl)-2-(3-(dimethylamino)azetidin-1-yl)-8-fluoroquinazolin-4-yl)-2,6-dimethylpiperazin-1-yl)prop-2-en-1-one]", "Binding %": "+ (+ indicates binding activity greater than 0% and up to 50%)"},
      {"smiles": "C=CC(=O)N1[C@H](C)CN(c2nc(N3CC(N(C)C)C3)nc3c(F)c(-c4c(C)ccc5[nH]nc(C6CC6)c45)c(Cl)cc23)C[C@@H]1C", "note": "(atropisomer, axis not shown) [Compound 134, 1-((2S,6R)-4-((R)-6-chloro-7-(3-cyclopropyl-5-methyl-1H-indazol-4-yl)-2-(3-(dimethylamino)azetidin-1-yl)-8-fluoroquinazolin-4-yl)-2,6-dimethylpiperazin-1-yl)prop-2-en-1-one]", "Binding %": "+++ (+++ indicates binding activity greater than 80%)"},
      {"smiles": "C=CC(=O)N1C[C@H](C)N(c2nc(OCCN3CCC(F)(F)C3)nc3c(F)c(-c4c(C)ccc5cnn(C)c45)c(Cl)cc23)C[C@H]1C", "note": "(atropisomer, axis not shown) [Compound 135, 1-((2R,5S)-4-((S)-6-chloro-2-(2-(3,3-difluoropyrrolidin-1-yl)ethoxy)-7-(1,6-dimethyl-1H-indazol-7-yl)-8-fluoroquinazolin-4-yl)-2,5-dimethylpiperazin-1-yl)prop-2-en-1-one]", "Binding %": "+ (+ indicates binding activity greater than 0% and up to 50%)"},
      {"smiles": "C=CC(=O)N1C[C@H](C)N(c2nc(OCCN3CCC(F)(F)C3)nc3c(F)c(-c4c(C)ccc5cnn(C)c45)c(Cl)cc23)C[C@H]1C", "note": "(atropisomer, axis not shown) [Compound 136, 1-((2R,5S)-4-((R)-6-chloro-2-(2-(3,3-difluoropyrrolidin-1-yl)ethoxy)-7-(1,6-dimethyl-1H-indazol-7-yl)-8-fluoroquinazolin-4-yl)-2,5-dimethylpiperazin-1-yl)prop-2-en-1-one]", "Binding %": "+++ (+++ indicates binding activity greater than 80%)"},
      {"smiles": "C=CC(=O)N1C[C@H](C)N(c2nc(N3CC(NC)C3)nc3c(F)c(-c4c(C)ccc5cnn(C)c45)c(Cl)cc23)C[C@H]1C", "note": "(atropisomer, axis not shown) [Compound 139, 1-((2R,5S)-4-((S)-6-chloro-7-(1,6-dimethyl-1H-indazol-7-yl)-8-fluoro-2-(3-(methylamino)azetidin-1-yl)quinazolin-4-yl)-2,5-dimethylpiperazin-1-yl)prop-2-en-1-one]", "Binding %": "+ (+ indicates binding activity greater than 0% and up to 50%)"},
      {"smiles": "C=CC(=O)N1[C@H](C)CN(c2nc(N3CC(N(C)C)C3)nc3c(F)c(-c4c(C)ccc5cnn(C)c45)c(Cl)cc23)C[C@@H]1C", "note": "(atropisomer, axis not shown) [Compound 141, 1-((2S,6R)-4-((S)-6-chloro-7-(1,6-dimethyl-1H-indazol-7-yl)-2-(3-(dimethylamino)azetidin-1-yl)-8-fluoroquinazolin-4-yl)-2,6-dimethylpiperazin-1-yl)propan-2-en-1-one]", "Binding %": "+ (+ indicates binding activity greater than 0% and up to 50%)"},
      {"smiles": "C=CC(=O)N1[C@H](C)CN(c2nc(N3CC(N(C)C)C3)nc3c(F)c(-c4c(C)ccc5cnn(C)c45)c(Cl)cc23)C[C@@H]1C", "note": "(atropisomer, axis not shown) [Compound 142, 1-((2S,6R)-4-((R)-6-chloro-7-(1,6-dimethyl-1H-indazol-7-yl)-2-(3-(dimethylamino)azetidin-1-yl)-8-fluoroquinazolin-4-yl)-2,6-dimethylpiperazin-1-yl)prop-2-en-1-one]", "Binding %": "+++ (+++ indicates binding activity greater than 80%)"},
      {"smiles": "C=CC(=O)N1CCN(c2nc(N3CC(N(C)C)C3)nc3c(F)c(-c4c(C)ccc5cnn(C)c45)c(Cl)cc23)C[C@H]1C", "note": "(atropisomer, axis not shown) [Compound 143, 1-((R)-4-((S)-6-chloro-7-(1,6-dimethyl-1H-indazol-7-yl)-2-(3-(dimethylamino)azetidin-1-yl)-8-fluoroquinazolin-4-yl)-2-methylpiperazin-1-yl)prop-2-en-1-one]", "Binding %": "+ (+ indicates binding activity greater than 0% and up to 50%)"}
    ]}
  ]
}
